From the NIST ThermoML archive (doi:10.1016/j.jct.2008.12.011)

Experiments:
[1] = mn = molality of the nth substance listed, in mol/kg; settings: 101 kPa, Liquid, Vibrating tube method
[2] = cn = amount concentration of the nth substance listed, in mol/dm3; settings: 101.3 kPa, Liquid, Vibrating tube method

O=S(=O)(O)CCCNC(CO)(CO)CO [3-[tris(hydroxymethyl)methylamino]-1-propanesulfonic acid] + O
mass density [kg/m3], [1]
Settings | m1 = 0.5011 | m1 = 0.8957 | m1 = 1.224 | m1 = 1.793 | m1 = 2.213 | m1 = 2.423 | m1 = 2.803
298.15 K | 1046.07 | 1064.95 | 1084.21 | 1117.87 | 1140.59 | 1152.07 | 1170.75
303.15 K | 1044.13 | 1062.96 | 1082.18 | 1115.68 | 1138.38 | 1149.81 | 1168.43
310.15 K | 1041.22 | 1059.95 | 1079.15 | 1112.62 | 1135.28 | 1146.62 | 1165.22
318.15 K | 1037.23 | 1055.92 | 1075.09 | 1108.55 | 1131.19 | 1142.49 | 1161.04
323.15 K | 1034.92 | 1053.59 | 1072.68 | 1106.08 | 1128.7 | 1139.98 | 1158.52
328.15 K | 1032.67 | 1051.25 | 1070.31 | 1103.67 | 1126.12 | 1137.32 | 1155.87

[Cl-].[Na+] [sodium chloride] + O
mass density [kg/m3], [2]
Settings | c1 = 1 | c1 = 1.5 | c1 = 2 | c1 = 2.5 | c1 = 3 | c1 = 3.5 | c1 = 4
298.15 K | – | 1053.3 | – | 1088.97 | 1110.22 | 1124.82 | –
303.15 K | 1035.38 | 1055.01 | 1073.49 | 1086.83 | 1107.87 | 1122.4 | 1146.3
308.15 K | – | 1053.06 | 1070.4 | 1083.71 | 1104.62 | 1118.95 | 1142.7
313.15 K | 1029.13 | 1050.21 | 1066.6 | 1079.83 | 1100.67 | 1114.84 | 1138.45
318.15 K | 1026.75 | 1046.65 | 1064.11 | 1077.28 | 1098.06 | 1112.16 | 1135.7
323.15 K | 1023.15 | 1044.21 | 1061.5 | 1074.62 | 1095.35 | 1109.38 | 1132.89

[Cl-].[K+] [potassium chloride] + O
mass density [kg/m3], [2]
Settings | c1 = 1 | c1 = 1.5 | c1 = 2 | c1 = 2.5 | c1 = 3 | c1 = 3.5 | c1 = 4
298.15 K | – | 1059.97 | – | 1104.2 | 1124.93 | 1145.56 | –
303.15 K | 1041.13 | 1058.12 | 1080.38 | 1102.19 | 1122.78 | 1143.35 | 1166.67
308.15 K | 1038.43 | 1055.31 | 1077.43 | 1099.06 | 1119.56 | 1140.06 | 1163.34
313.15 K | 1035.01 | 1051.75 | 1073.77 | 1095.37 | 1115.79 | 1136.18 | 1159.35
318.15 K | 1032.69 | 1049.38 | 1071.35 | 1092.9 | 1113.28 | 1133.63 | 1156.76
323.15 K | 1030.24 | 1047.03 | 1068.81 | 1090.34 | 1110.71 | 1131.02 | 1154.1
